Values joined by “and” are separate entries in the source; they are usually repeats but may differ in a detail not shown here. Equal values may be shown once.
Columns and labels:
[1] = system: Lactobacillus fermentum; assay: Comparative efficacy analysis Virginiamycin vs. Penicillin G Procaine, growth in MRS broth, 24 well plate; type: cell-based
Excerpt: The most commonly found microorganism in fuel ethanol producing plants is the Lactobacillus fermentum bacterium and is considered as an “industry normal” bacterium. This example compares the use of a Bactenix® line of products, Penicillin G Procaine-antibiotic versus Virginiamycin-antibiotic to control “industry normal” Lactobacillus fermentum bacterium. This trial uses an alcohol water mixture to assure total dissolving of antibiotics. This assures that the correct concentrations of antibiotics are going into the test wells and thereby preventing under dosing during the trial. All bacteria tested were industry specific isolates that were obtained from actual corn mash samples from fermentation alcohol production plants. The trial was set up as follows: • 1. Dissolve 0.1 g of each of the antibiotics in 1 ml water and then add 5 ml of ethanol, vortex and bring up to 10 ml with sterile water to from a suspension. • 2. Dilute the previous suspension 1:10 with sterile water. This gives a one mg/ml concentration. • 3. Filter the suspension by running through a 0.2 μm syringe filter. • 4. Add four μl broth in a centrifuge then add antibiotics to MRS (DeMan, Rogosa and Sharpe) broth at the concentrations required for the test. • 5. Take four μl of a fresh 24-hour culture of the target organisms and add to the corresponding empty wells in a pre-labeled 24 well tissue culture plate. • 6. Pipette one ml of the appropriate antibiotic media to each well of the plate. • 7. Incubate at 33° C. for 24 hours. • 8. Read plates for bacterial growth and re-incubate the plates at 33° C. • 9. After 48 hours read and report the final results.

[2] = system: contaminating bacteria; assay: Alcohol production plant trial, fermentor drop data (50 m/g/y dry grind, corn); type: cell-based; details: 0.5 ppm
Procedure: This trial was conducted at a 50 million gallon per year (m/g/y) dry grind fuel alcohol production facility utilizing corn as a fermentation substrate. Batch yeast propagation and fermentation process were utilized. Antimicrobials were added to the fermentor during the fill cycle at approximately 30% fill.
No other changes were made to the process or chemical additions that would influence the fermentation kinetics monitored during 3 sets of fermentor batches listed below. The fermentation data was accumulated at the end (drop) of the fermentation process for each of the fermentors. Fermentation kinetics was measured for three batch cycles including:
Set 1—“Pre Penicillin G Procaine trial”-10 fermentor batches using a level of 0.5 ppm Virginiamycin. See results in Table 2.
Set 2—“Penicillin G Procaine trial”-10 fermentor batches using a level of 0.5 ppm of Penicillin G Procaine. See results in Table 3.
Set 3—“Post Penicillin G Procaine trial”-10 fermentor batches using a level of 0.5 ppm of Virginiamycin. See results in Table 4.

[3] = Set 1 'Pre Penicillin G Procaine trial', 10 Batch average
[4] = Set 1 'Pre Penicillin G Procaine trial', drop data, single fermentor batch
[5] = Set 3 'Post Penicillin G Procaine trial', 10 Batch average
[6] = Set 3 'Post Penicillin G Procaine trial', drop data, single fermentor batch

Virginiamycin
inhibition of growth of the 'industry normal' bacteria ([1]; at 0.5 ppm, as per table 1): did not seem to inhibit the growth
effectiveness against Lactobacillus fermentum ([1]; dosage of above 1 ppm, compared with Penicillin G Procaine): comparable effectiveness as Penicillin G Procaine
concentration from which effective against Lactobacillus fermentum ([1]; industry standard L. fermentum isolate, MRS broth, 33° C., read at 24 and 48 hours): > 0.5 ppm
Acetic % [2, 3]: 0.04%
EtOH v/v % [2, 3]: 15.48 v/v %
Glucose % [2, 3]: 0.29%
Lactic % [2, 3]: 0.64%
Acetic % [2, 4]: 0.02% and 0.04% and 0.13% and 0.03%
Glucose % [2, 4]: 0.36% and 0.27% and 0.26% and 0.31% and 0.29% and 0.3% and 0.16%
Lactic % [2, 4]: 0.59% and 0.71% and 0.85% and 0.56% and 0.79% and 0.584% and 0.41%
Acetic % [2, 5]: 0.04%
EtOH v/v % [2, 5]: 15.49 v/v %
Glucose % [2, 5]: 0.30%
Lactic % [2, 5]: 0.57%
Acetic % [2, 6]: 0.05% and 0.04% and 0.03%
Glucose % [2, 6]: 0.26% and 0.35% and 0.29% and 0.32% and 0.30% and 0.33% and 0.25%

From US8828696B2, “Use of Penicillin G Procaine as a selective antimicrobial agent in the production of alcohol by fermentation” (Lallemand Specialites, Inc, priority 2008, dated 2014)
